Reference: patent US12655116B2, “Substituted isophthalic acid diamides” (Bayer Aktiengesellschaft, priority 2020, dated 2026)

Key:
AVEFA [1] = test: Post-emergence herbicidal action against AVEFA; assay type: in vivo, Avena fatua; settings: 20 g/ha, visual assessment about 3 weeks after treatment, 100% = plants have died, 0% = like control plants
In short: (§1)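 Herbicidal effect was scored visually in percent after about 3 weeks in the greenhouse. Plants had been raised in sandy loam and treated post-emergence at the one-leaf stage with formulated compound at 600 to 800 l/ha water plus 0.2% wetting agent.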

MATIN [2] = test: Pre-emergence herbicidal action against MATIN; assay type: in vivo, Matricaria inodora; settings: Tripleurospermum inodorum, 504 h
In short: (§2)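 Herbicidal effect was assessed 3 weeks after treatment by visual comparison with untreated controls, 100% denoting dead plants. Aqueous WP or EC preparations had been applied at 600 to 800 l/ha with 0.2% wetting agent to the soil covering freshly sown seeds.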

PHBPU [3] = test: Post-emergence herbicidal action against PHBPU; assay type: in vivo, Pharbitis purpurea; settings: dosage 20 g/ha
In short: as §1

AMARE [4] = test: Pre-emergence herbicidal action against AMARE; assay type: in vivo, Amaranthus retroflexus
In short: as §2

ECHCG [5] = test: Pre-emergence herbicidal action against ECHCG; assay type: in vivo, Echinochloa crus-galli
In short: as §2

AVEFA [6] = test: Pre-emergence herbicidal action against AVEFA; assay type: in vivo, Avena fatua; settings: Avena fatua, 504 h; 80 g/ha, pre-emergence
In short: as §2

LOLRI [7] = test: Post-emergence herbicidal action against LOLRI; assay type: in vivo, Lolium rigidum; settings: dosage 20 g/ha
Method: Seeds of monocotyledonous and dicotyledonous weed and crop plants are laid out in sandy loam soil in wood-fiber pots, covered with soil and cultivated in a greenhouse under good growth conditions. 2 to 3 weeks after sowing, the test plants are treated at the one-leaf stage. The compounds of the invention, formulated in the form of wettable powders (WP) or as emulsion concentrates (EC), are then sprayed onto the green parts of the plants in the form of an aqueous suspension or emulsion at a water application rate equivalent to 600 to 800 l/ha, with addition of 0.2% wetting agent. After the test plants have been left to stand in the greenhouse under optimal growth conditions for about 3 weeks, the action of the preparations is assessed visually in comparison to untreated controls (herbicidal action in percent (%): 100% activity=the plants have died, 0% activity=like control plants). […] The tables below illustrate, in an illustrative manner, the post-emergence herbicidal action of the compounds of the invention, the herbicidal activity being stated in percent.

PHBPU [8] = test: Pre-emergence herbicidal action against PHBPU; assay type: in vivo, Pharbitis purpurea; settings: Ipomoea purpurea, 504 h, dosage 80 g/ha
In short: as §2

DIGSA [9] = test: Post-emergence herbicidal action against DIGSA; assay type: in vivo, Digitaria sanguinalis
In short: as §1

ABUTH [10] = test: Pre-emergence herbicidal action against ABUTH; assay type: in vivo, Abutilon theophrasti
In short: as §2

VERPE = test: Post-emergence herbicidal action against VERPE; assay type: in vivo, Veronica persica; settings: Veronica persica, 504 h, 20 g/ha
In short: as §1

LOLRI [11] = test: Pre-emergence herbicidal action against LOLRI; assay type: in vivo, Lolium rigidum; settings: Lolium rigidum, 504 h, 80 g/ha
In short: as §2

AMARE [12] = test: Post-emergence herbicidal action against AMARE; assay type: in vivo, Amaranthus retroflexus; settings: 20 g/ha, visual assessment about 3 weeks after treatment, 100% = plants have died, 0% = like control plants
In short: as §1

ECHCG [13] = test: Post-emergence herbicidal action against ECHCG; assay type: in vivo, Echinochloa crus-galli
In short: as §1

SETVI [14] = test: Pre-emergence herbicidal action against SETVI; assay type: in vivo, Setaria viridis; settings: dosage 80 g/ha
In short: as §2

ALOMY [15] = test: Post-emergence herbicidal action against ALOMY; assay type: in vivo, Alopecurus myosuroides; settings: visual assessment about 3 weeks after treatment vs untreated controls
In short: as §1

ALOMY [16] = test: Pre-emergence herbicidal action against ALOMY; assay type: in vivo, Alopecurus myosuroides; settings: 80 g/ha, pre-emergence, scored visually after 3 weeks vs untreated controls (100% = plants have died, 0% = like control plants)
In short: as §2

VIOTR [17] = test: Pre-emergence herbicidal action against VIOTR; assay type: in vivo, Viola tricolor
In short: as §2

DIGSA [18] = test: Pre-emergence herbicidal action against DIGSA; assay type: in vivo, Digitaria sanguinalis
In short: as §2

SETVI [19] = test: Post-emergence herbicidal action against SETVI; assay type: in vivo, Setaria viridis
In short: as §1

MATIN [20] = test: Post-emergence herbicidal action against MATIN; assay type: in vivo, Matricaria inodora; settings: dosage 20 g/ha
In short: as §1

STEME [21] = test: Pre-emergence herbicidal action against STEME; assay type: in vivo, Stellaria media
In short: as §2

STEME [22] = test: Post-emergence herbicidal action against STEME; assay type: in vivo, Stellaria media
In short: as §1

ABUTH [23] = test: Post-emergence herbicidal action against ABUTH; assay type: in vivo, Abutilon theophrasti; settings: visual assessment about 3 weeks after treatment vs untreated controls
In short: as §1

VIOTR [24] = test: Post-emergence herbicidal action against VIOTR; assay type: in vivo, Viola tricolor
In short: as §1

POLCO = test: Pre-emergence herbicidal action against POLCO; assay type: in vivo, Polygonum convolvulus; settings: dosage 80 g/ha
In short: as §2

[25] = 80 g/ha, scored visually after 3 weeks vs untreated controls (100% = plants have died, 0% = like control plants)

Cn1nnnc1NC(=O)c1ccc(Br)c(C(=O)NCC(F)(F)F)c1Cl [Example 1-181]
100%: pest or weed control at 80 g/ha (MATIN [2]; dosage 80 g/ha) | pest or weed control at 20 g/ha (AMARE [4]; Amaranthus retroflexus, 504 h, 20 g/ha, scored visually after 3 weeks vs untreated controls, 100% = plants have died, 0% = like control plants) | pest or weed control at 80 g/ha (AMARE [4]; Amaranthus retroflexus, 504 h, 80 g/ha, scored visually after 3 weeks vs untreated controls, 100% = plants have died, 0% = like control plants) | pest or weed control at 80 g/ha (ECHCG [5]; Echinochloa crus-galli, 504 h, 80 g/ha) | pest or weed control at 80 g/ha (ABUTH [10]; Abutilon theophrasti, 504 h, 80 g/ha, scored visually after 3 weeks vs untreated controls (100% = plants have died, 0% = like control plants)) | pest or weed control at 20 g/ha (AMARE [12]; Amaranthus retroflexus, 504 h) | pest or weed control at 80 g/ha (SETVI [14]; Setaria viridis, 504 h) | pest or weed control at 20 g/ha (ALOMY [15]; Alopecurus myosuroides, 504 h, dosage 20 g/ha) | pest or weed control at 80 g/ha (ALOMY [16]; Alopecurus myosuroides, 504 h) | pest or weed control at 20 g/ha (VIOTR [17]; Viola tricolor, 504 h, dosage 20 g/ha) | pest or weed control at 80 g/ha (VIOTR [17]; Viola tricolor, 504 h, dosage 80 g/ha) | pest or weed control at 20 g/ha (DIGSA [18]; Digitaria sanguinalis, 504 h, dosage 20 g/ha) | pest or weed control at 80 g/ha (DIGSA [18]; Digitaria sanguinalis, 504 h, dosage 80 g/ha)
90%: pest or weed control at 20 g/ha (AVEFA [1]; Avena fatua, 504 h) | pest or weed control at 20 g/ha (MATIN [2]; dosage 20 g/ha) | pest or weed control at 20 g/ha (PHBPU [3]; Ipomoea purpurea, 504 h) | pest or weed control at 5 g/ha (DIGSA [9]; Digitaria sanguinalis, 504 h, 5 g/ha) | pest or weed control at 20 g/ha (DIGSA [9]; Digitaria sanguinalis, 504 h, 20 g/ha) | pest or weed control at 20 g/ha (ABUTH [10]; Abutilon theophrasti, 504 h, dosage 20 g/ha, scored visually after 3 weeks vs untreated controls, 100% = plants have died, 0% = like control plants, read-out: Pre-emergence action against ABUTH (herbicidal activity in percent)) | pest or weed control at 20 g/ha (VERPE) | pest or weed control at 20 g/ha (SETVI [19]; Setaria viridis, 504 h, dosage 20 g/ha)
80%: pest or weed control at 80 g/ha (AVEFA [6]) | pest or weed control at 20 g/ha (LOLRI [7]; Lolium rigidum, 504 h) | pest or weed control at 80 g/ha (PHBPU [8]) | pest or weed control at 80 g/ha (LOLRI [11]) | pest or weed control at 5 g/ha (ECHCG [13]; Echinochloa crus-galli, 504 h, dosage 5 g/ha) | pest or weed control at 20 g/ha (ECHCG [13]; Echinochloa crus-galli, 504 h, dosage 20 g/ha) | pest or weed control at 5 g/ha (ALOMY [15]; Alopecurus myosuroides, 504 h, dosage 5 g/ha)

CCNC(=O)c1c(C(F)F)ccc(C(=O)Nc2nnco2)c1Cl [Example 5-123]
80%: Post-emergence action at 20 g/ha against AVEFA in % (AVEFA [1]) | Post-emergence action against MATIN in % (MATIN [20]) | Post-emergence action against PHBPU in % (PHBPU [3]) | Post-emergence action against LOLRI in % (LOLRI [7]) | Post-emergence action against ALOMY in % (ALOMY [15]; dosage 20 g/ha) | Pre-emergence action against ALOMY (herbicidal activity) (ALOMY [16]) | Post-emergence action against VIOTR in % (VIOTR [24]; 5 g/ha) | Post-emergence action against SETVI in % (SETVI [19]; dosage 5 g/ha) | Post-emergence action against SETVI in % (SETVI [19]; dosage 20 g/ha) | Pre-emergence action against POLCO in % (POLCO)
90%: Pre-emergence action against ECHCG in % (ECHCG [5]; 20 g/ha) | Post-emergence action against DIGSA in % (DIGSA [9]; 5 g/ha) | Post-emergence action against DIGSA (DIGSA [9]; 20 g/ha) | Pre-emergence action against STEME in % (STEME [21]; dosage 20 g/ha) | Pre-emergence action against STEME in % (STEME [21]; dosage 80 g/ha) | Post-emergence action against STEME in % (STEME [22]; 20 g/ha) | Post-emergence action against STEME in % (STEME [22]; dosage 5 g/ha) | Post-emergence action at 20 g/ha against AMARE in % (AMARE [12]) | Post-emergence action against ECHCG in % (ECHCG [13]; dosage 5 g/ha) | Post-emergence action against ECHCG in % (ECHCG [13]; dosage 20 g/ha) | Post-emergence action against ABUTH in % (ABUTH [23]; dosage 5 g/ha) | Post-emergence action against ABUTH in % (ABUTH [23]; dosage 20 g/ha) | Pre-emergence action against VIOTR in % (VIOTR [17]; dosage 20 g/ha) | Post-emergence action against VIOTR in % (VIOTR [24]; 20 g/ha)
100%: Pre-emergence action against AMARE in % (AMARE [4]; 20 g/ha, scored visually after 3 weeks vs untreated controls, 100% = plants have died, 0% = like control plants) | Pre-emergence action against AMARE in % (AMARE [4]; [25]) | Pre-emergence action against ECHCG in % (ECHCG [5]; 80 g/ha) | Pre-emergence action against ABUTH (herbicidal activity) (ABUTH [10]; [25]) | Pre-emergence action against ABUTH (herbicidal activity in percent) (ABUTH [10]; dosage 20 g/ha, scored visually after 3 weeks vs untreated controls, 100% = plants have died, 0% = like control plants) | Pre-emergence action against SETVI in % (SETVI [14]) | Pre-emergence action against VIOTR in % (VIOTR [17]; dosage 80 g/ha) | Pre-emergence action against DIGSA in % (DIGSA [18]; dosage 20 g/ha) | Pre-emergence action against DIGSA in % (DIGSA [18]; dosage 80 g/ha)
